In patent US11319299B2, “Substituted carboxamides as inhibitors of WDR5 protein-protein binding” (PROPELLON THERAPEUTICS INC., priority 2016, dated 2022):

Each compound was assayed against WDR5 (Homo sapiens (Human), UniProt P61964) (assay: Surface Plasmon Resonance (SPR) assay, KD and residence time). Conditions: surface plasmon resonance (SPR) assay; read-out: WDR5 binding affinity (KD).
Type: binding

Q: With C[C@@H]1CN(c2cc(F)c(-c3ccc(Cl)cc3)cc2NC(=O)c2c[nH]c(=O)cc2C(F)(F)F)C[C@H](C)N1C [Example 147, N-[5-(4-chlorophenyl)-4-fluoro-2-[(3R,5S)-3,4,5-trimethylpiperazin-1-yl]phenyl]-6-oxo-4-(trifluoromethyl)-1H-pyridine-3-carboxamide] as the compound, how does the Kd read?
A: 4.44 nM

Q: For COc1ccc(CN2CC=C(c3cc(NC(=O)c4c[nH]c(=O)cc4C(F)(F)F)c(N4C[C@@H](C)N(C)[C@@H](C)C4)cc3F)CC2)cc1 [Example 148, N-[4-fluoro-5-[1-[(4-methoxyphenyl)methyl]-3,6-dihydro-2H-pyridin-4-yl]-2-[(3R,5S)-3,4,5-trimethylpiperazin-1-yl]phenyl]-6-oxo-4-(trifluoromethyl)-1H-pyridine-3-carboxamide], which Kd is on record?
A: 0.54 nM

Q: How did the Kd turn out when Cc1cc(-c2cc(NC(=O)c3c[nH]c(=O)cc3C(F)(F)F)c(N3C[C@@H](C)N(C)[C@@H](C)C3)cc2F)cnn1 [Example 149, N-[4-fluoro-5-(6-methylpyridazin-4-yl)-2-[(3R,5S)-3,4,5-trimethylpiperazin-1-yl]phenyl]-6-oxo-4-(trifluoromethyl)-1H-pyridine-3-carboxamide] was run?
A: 4.65 nM

Q: With CC(C)CN1CC=C(c2cc(NC(=O)c3c[nH]c(=O)cc3C(F)(F)F)c(N3C[C@@H](C)N(C)[C@@H](C)C3)cc2F)CC1 [Example 150, N-[4-fluoro-5-[1-(2-methylpropyl)-3,6-dihydro-2H-pyridin-4-yl]-2-[(3R,5S)-3,4,5-trimethylpiperazin-1-yl]phenyl]-6-oxo-4-(trifluoromethyl)-1H-pyridine-3-carboxamide] as the compound, how does the Kd read?
A: 9 nM

Q: Which Kd does the source give for C[C@@H]1CN(c2cc(F)c(C3=CCN(CC4CC4)CC3)cc2NC(=O)c2c[nH]c(=O)cc2C(F)(F)F)C[C@H](C)N1C [Example 151, N-[5-[1-(cyclopropylmethyl)-3,6-dihydro-2H-pyridin-4-yl]-4-fluoro-2-[(3R,5S)-3,4,5-trimethylpiperazin-1-yl]phenyl]-6-oxo-4-(trifluoromethyl)-1H-pyridine-3-carboxamide] here?
A: 7.46 nM

Q: C[C@@H]1CN(c2cc(F)c(C3=CCN(CCC(F)(F)F)CC3)cc2NC(=O)c2c[nH]c(=O)cc2C(F)(F)F)C[C@H](C)N1C [Example 152, N-[4-fluoro-2-[(3R,5S)-3,4,5-trimethylpiperazin-1-yl]-5-[1-(3,3,3-trifluoropropyl)-3,6-dihydro-2H-pyridin-4-yl]phenyl]-6-oxo-4-(trifluoromethyl)-1H-pyridine-3-carboxamide] was tested. Which Kd did it give?
A: 6.33 nM

Q: For C[C@@H]1CN(c2cc(F)c(C3=CCN(Cc4ccc(F)cc4)CC3)cc2NC(=O)c2c[nH]c(=O)cc2C(F)(F)F)C[C@H](C)N1C [Example 153, N-[4-fluoro-5-[1-[(4-fluorophenyl)methyl]-3,6-dihydro-2H-pyridin-4-yl]-2-[(3R,5S)-3,4,5-trimethylpiperazin-1-yl]phenyl]-6-oxo-4-(trifluoromethyl)-1H-pyridine-3-carboxamide], which Kd is on record?
A: 1.08 nM

Q: How did the Kd turn out when C[C@@H]1CN(c2cc(F)c(C3=CCN(Cc4cccnc4)CC3)cc2NC(=O)c2c[nH]c(=O)cc2C(F)(F)F)C[C@H](C)N1C [Example 154, N-[4-fluoro-5-[1-(pyridin-3-ylmethyl)-3,6-dihydro-2H-pyridin-4-yl]-2-[(3R,5S)-3,4,5-trimethylpiperazin-1-yl]phenyl]-6-oxo-4-(trifluoromethyl)-1H-pyridine-3-carboxamide] was run?
A: 5.46 nM

Q: C[C@@H]1CN(c2cc(F)c(C3=CCN(Cc4ccsc4)CC3)cc2NC(=O)c2c[nH]c(=O)cc2C(F)(F)F)C[C@H](C)N1C [Example 155, N-[4-fluoro-2-[(3R,5S)-3,4,5-trimethylpiperazin-1-yl]-5-[1-(thiophen-3-ylmethyl)-3,6-dihydro-2H-pyridin-4-yl]phenyl]-6-oxo-4-(trifluoromethyl)-1H-pyridine-3-carboxamide] was tested. Which Kd did it give?
A: 4.76 nM

Q: With C[C@@H]1CN(c2cc(F)c(-c3cncc(OCC4CC4)c3)cc2NC(=O)c2c[nH]c(=O)cc2C(F)(F)F)C[C@H](C)N1C [Example 156, N-[5-[5-(cyclopropylmethoxy)pyridin-3-yl]-4-fluoro-2-[(3R,5S)-3,4,5-trimethylpiperazin-1-yl]phenyl]-6-oxo-4-(trifluoromethyl)-1H-pyridine-3-carboxamide] as the compound, how does the Kd read?
A: 8.61 nM

Q: C[C@@H]1CN(c2cc(F)c(-c3ccc(O)nc3)cc2NC(=O)c2c[nH]c(=O)cc2C(F)(F)F)C[C@H](C)N1C [Example 157, N-[4-fluoro-5-(6-hydroxypyridin-3-yl)-2-[(3R,5S)-3,4,5-trimethylpiperazin-1-yl]phenyl]-6-oxo-4-(trifluoromethyl)-1H-pyridine-3-carboxamide] was tested. Which Kd did it give?
A: 2.16 nM

Q: How did the Kd turn out when C[C@@H]1CN(c2cc(F)c(-c3cnc(N4CCNCC4)nc3)cc2NC(=O)c2c[nH]c(=O)cc2C(F)(F)F)C[C@H](C)N1C [Example 158, N-[4-fluoro-5-(2-piperazin-1-ylpyrimidin-5-yl)-2-[(3R,5S)-3,4,5-trimethylpiperazin-1-yl]phenyl]-6-oxo-4-(trifluoromethyl)-1H-pyridine-3-carboxamide] was run?
A: 0.345 nM

Q: For C[C@@H]1CN(c2cc(F)c(-c3cnc(N4CCOCC4)nc3)cc2NC(=O)c2cc(F)cc(Cl)c2)C[C@H](C)N1C [Example 159, 3-chloro-5-fluoro-N-[4-fluoro-5-(2-morpholin-4-ylpyrimidin-5-yl)-2-[(3R,5S)-3,4,5-trimethylpiperazin-1-yl]phenyl]benzamide], which Kd is on record?
A: 29 nM

Q: C[C@@H]1CN(c2cc(F)c(-c3cnc(N4CCOCC4)nc3)cc2NC(=O)c2cc(F)cc(F)c2)C[C@H](C)N1C [Example 160, 3,5-difluoro-N-[4-fluoro-5-(2-morpholin-4-ylpyrimidin-5-yl)-2-[(3R,5S)-3,4,5-trimethylpiperazin-1-yl]phenyl]benzamide] was tested. Which Kd did it give?
A: 26.8 nM

Q: C[C@@H]1CN(c2cc(F)c(C3=CCN(Cc4nccs4)CC3)cc2NC(=O)c2c[nH]c(=O)cc2C(F)(F)F)C[C@H](C)N1C [Example 162, N-[4-fluoro-2-[(3R,5S)-3,4,5-trimethylpiperazin-1-yl]-5-[1-(1,3-thiazol-2-ylmethyl)-3,6-dihydro-2H-pyridin-4-yl]phenyl]-6-oxo-4-(trifluoromethyl)-1H-pyridine-3-carboxamide] was tested. Which Kd did it give?
A: 2.83 nM

Q: For Cc1ncc(CN2CC=C(c3cc(NC(=O)c4c[nH]c(=O)cc4C(F)(F)F)c(N4C[C@@H](C)N(C)[C@@H](C)C4)cc3F)CC2)o1 [Example 163, N-[4-fluoro-5-[1-[(2-methyl-1,3-oxazol-5-yl)methyl]-3,6-dihydro-2H-pyridin-4-yl]-2-[(3R,5S)-3,4,5-trimethylpiperazin-1-yl]phenyl]-6-oxo-4-(trifluoromethyl)-1H-pyridine-3-carboxamide], which Kd is on record?
A: 4.05 nM

Q: For C[C@@H]1CN(c2cc(F)c(C3=CCN(Cc4cnn(C)c4)CC3)cc2NC(=O)c2c[nH]c(=O)cc2C(F)(F)F)C[C@H](C)N1C [Example 164, N-[4-fluoro-5-[1-[(I-methylpyrazol-4-yl)methyl]-3,6-dihydro-2H-pyridin-4-yl]-2-[(3R,5S)-3,4,5-trimethylpiperazin-1-yl]phenyl]-6-oxo-4-(trifluoromethyl)-1H-pyridine-3-carboxamide], which Kd is on record?
A: 1.43 nM

Q: Which Kd does the source give for C[C@@H]1CN(c2cc(F)c(C3=CCN(Cc4ccc(N5CCOCC5)cc4)CC3)cc2NC(=O)c2c[nH]c(=O)cc2C(F)(F)F)C[C@H](C)N1C [Example 165, N-[4-fluoro-5-[1-[(4-morpholin-4-ylphenyl)methyl]-3,6-dihydro-2H-pyridin-4-yl]-2-[(3R,5S)-3,4,5-trimethylpiperazin-1-yl]phenyl]-6-oxo-4-(trifluoromethyl)-1H-pyridine-3-carboxamide] here?
A: 6.28 nM

Q: With C[C@@H]1CN(c2cc(F)c(C3=CCN(Cc4ccc(N5CCN(C)CC5)cc4)CC3)cc2NC(=O)c2c[nH]c(=O)cc2C(F)(F)F)C[C@H](C)N1C [Example 166, N-[4-fluoro-5-[1-[[4-(4-methylpiperazin-1-yl)phenyl]methyl]-3,6-dihydro-2H-pyridin-4-yl]-2-[(3R,5S)-3,4,5-trimethylpiperazin-1-yl]phenyl]-6-oxo-4-(trifluoromethyl)-1H-pyridine-3-carboxamide] as the compound, how does the Kd read?
A: 0.23 nM

Q: C[C@@H]1CN(c2cc(F)c(C3=CCN(CC4CCOCC4)CC3)cc2NC(=O)c2c[nH]c(=O)cc2C(F)(F)F)C[C@H](C)N1C [Example 167, N-[4-fluoro-5-[1-(oxan-4-ylmethyl)-3,6-dihydro-2H-pyridin-4-yl]-2-[(3R,5S)-3,4,5-trimethylpiperazin-1-yl]phenyl]-6-oxo-4-(trifluoromethyl)-1H-pyridine-3-carboxamide] was tested. Which Kd did it give?
A: 5.76 nM

Q: With CN(C)[C@@H]1CCN(c2cc(F)c(-c3cnc(N4CCOCC4)nc3)cc2NC(=O)c2cc(Cl)cc(Cl)c2)C1 [Example 168, 3,5-dichloro-N-[4-fluoro-5-(2-morpholin-4-ylpyrimidin-5-yl)-2-[(3R)-3-(dimethylamino)pyrrolidin-1-yl]phenyl]benzamide] as the compound, how does the Kd read?
A: 30 nM

Q: Which Kd does the source give for CN(C)[C@@H]1CCN(c2cc(F)c(-c3ccc(N4CCOCC4)cc3)cc2NC(=O)c2cc(Cl)cc(Cl)c2)C1 [Example 169, 3,5-dichloro-N-[4-fluoro-5-(4-morpholin-4-ylphenyl)-2-[(3R)-3-(dimethylamino)pyrrolidin-1-yl]phenyl]benzamide] here?
A: 122 nM

Q: Which Kd does the source give for C[C@@H]1CN(c2cc(F)c(-c3cnc(N4CCOCC4)c(C#N)c3)cc2NC(=O)c2c[nH]c(=O)cc2C(F)(F)F)C[C@H](C)N1C [Example 170, N-[5-(5-cyano-6-morpholin-4-ylpyridin-3-yl)-4-fluoro-2-[(3R,5S)-3,4,5-trimethylpiperazin-1-yl]phenyl]-6-oxo-4-(trifluoromethyl)-1H-pyridine-3-carboxamide] here?
A: 1.17 nM

Q: For Cc1cc(-c2cc(NC(=O)c3c[nH]c(=O)cc3C(F)(F)F)c(N3C[C@@H](C)N(C)[C@@H](C)C3)cc2F)cnc1N1CCOCC1 [Example 171, N-[4-fluoro-5-(5-methyl-6-morpholin-4-ylpyridin-3-yl)-2-[(3R,5S)-3,4,5-trimethylpiperazin-1-yl]phenyl]-6-oxo-4-(trifluoromethyl)-1H-pyridine-3-carboxamide], which Kd is on record?
A: 2.5 nM

Q: C[C@@H]1CN(c2cc(F)c(-c3cnc4c(c3)CCN4)cc2NC(=O)c2c[nH]c(=O)cc2C(F)(F)F)C[C@H](C)N1C [Example 172, N-[5-(2,3-dihydro-1H-pyrrolo[2,3-b]pyridin-5-yl)-4-fluoro-2-[(3R,5S)-3,4,5-trimethylpiperazin-1-yl]phenyl]-6-oxo-4-(trifluoromethyl)-1H-pyridine-3-carboxamide] was tested. Which Kd did it give?
A: 10.3 nM
